Measured values as given in BindingDB's records for doi:10.1021/acs.jmedchem.1c00124 (Hemoshear Therapeutics, 2021).

What was measured:
[1] = Direct inhibition of CYP2C19 in human liver microsomes using S-mephenytoin as substrate
[2] = Time-dependent inhibition of CYP2C9 in human liver microsomes using diclofenac as substrate preincubated for 30 mins
[3] = Direct inhibition of CYP2C8 in human liver microsomes using amodiaquine as substrate
[4] = Direct inhibition of CYP2D6 in human liver microsomes using bufuralol as substrate
[5] = Time-dependent inhibition of CYP2C8 in human liver microsomes using amodiaquine as substrate preincubated for 30 mins
[6] = Time-dependent inhibition of CYP1A2 in human liver microsomes using Phenacetin as substrate preincubated for 30 mins
[7] = Time-dependent inhibition of CYP2D6 in human liver microsomes using bufuralol as substrate preincubated for 30 mins
[8] = Direct inhibition of CYP1A2 in human liver microsomes using Phenacetin as substrate
[9] = Direct inhibition of CYP2C9 in human liver microsomes using diclofenac as substrate
[10] = Time-dependent inhibition of CYP2C19 in human liver microsomes using S-mephenytoin as substrate preincubated for 30 mins

Measured: IC50

CCC(C)(C)C(=O)O [2,2-DIMETHYLBUTYRATE]
> 10 mM: [1] | [2] | [3] | [4] | [5] | [6] | [7] | [8] | [9] | [10]
